Experimental data: patent US20240238458A1, “COMPOUNDS TARGETING FIBROBLAST-ACTIVATION PROTEIN AND METHODS OF USE THEREOF” (Purdue Research Foundation, priority 2021, published 2024)

System: phosphorylation of Akt
Experiment: Inhibition of phosphorylation of Akt by FAP5-PI3K inhibitors in TGF-β1 stimulated primary HLF (western blot)
Assay type: cell-based
Settings: 24 hours and 48 hours of incubation, compounds with non-releasable linkers
Procedure: Primary HLF with passage number #˜8 were seeded in Dulbecco's Modified Eagle Medium (DMEM) with 10% fetal bovine serum (FBS) (˜100,000 cells/well) in 12 well plates to achieve ˜80% confluency. The cells were then starved in DMEM with 0.4% FBS for 24 hours, followed by stimulation by 10 ng/mL transforming growth factor-beta 1 (TGF-β1) for 24 hours.
After stimulation, cells were incubated with the FAP5-PI3K inhibitors for 2 hours, followed by replacement of culture media containing 2 ng/mL TGF-β1 and incubated for 24 hours (see FIG. 21) and 48 hours (see FIG. 22). All wells are added with 0.1% of DMSO as vehicle.
Cells were detached using trypsin and lysed with lysis buffer, proteins from cells were extracted for western blot analysis.

SMILES: COc1ncc(-c2ccc3nccc(-c4ccc(COC(=O)NCCNC(=O)CCc5cccc6c5CN(C(=O)C[C@@H]5C[C@@H](C(=O)N7CC(F)(F)C[C@H]7C#N)NC5=O)C6)nc4)c3c2)cc1NS(=O)(=O)c1ccc(F)cc1F [FAP5-Carbamate-PI3ki]
- inhibition of phosphorylation of Akt (pAkt normalized to tAkt): consistently performed better than FAP5-Ester-PI3Ki and FAP5-PI3Ki-NR
